Among the test systems are Malme-3M; UO-31; SW-620; SK-MEL-5; SNB-19; HCT-116; ACHN; UACC-257; CCRF-CEM; KM12; SNB-75; OVCAR-3; 786-0; HL-60; SK-MEL-28.
Common to all, as to assay: NCI anticancer screen, dose series, 48 h

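How tested: cells in 96-well plates exposed to compound for 48 hours at five concentrations. At the GI50, growth is halved.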 Active and inactive are the calls of the source. Rule as the data show it: active = GI50 up to about 1.1 µM and inactive = higher. Bounds are passed on as bounds.

On to `Cn1c(=O)nc2n(-c3cc(Cl)ccc3Cl)c3ccccc3nc-2c1=O`, for which the GI50 in the test with Malme-3M was 3.78 µM (inactive); in the test on UO-31 it was 13.6 µM (inactive); with SW-620 it was 2.18 µM (inactive); with SK-MEL-5, 1.95 µM (inactive); in the test on SNB-19, 4.67 µM (inactive); with HCT-116, 4.33 µM (inactive). In addition, the GI50 was 0.906 µM (active) in the test on ACHN; 2.18 µM (inactive) in the test with UACC-257; 4.02 µM (inactive) with CCRF-CEM; 5.58 µM (inactive) in the test on KM12; 11.2 µM (inactive) in the test on SNB-75; 2.95 µM (inactive) in the test on OVCAR-3. Besides, the GI50 in the test on 786-0 was 8.45 µM (inactive).

For the compound `Oc1ccc(I)c2cccnc12`, the GI50 in the test on Malme-3M is 7.55 µM (inactive); in the test on UO-31, 6.98 µM (inactive); in the test on SW-620, 4.43 µM (inactive); with HL-60, 2.12 µM (inactive); in the test on SK-MEL-28 it was 40.1 µM (inactive); in the test on SNB-19, 17.8 µM (inactive). Also, the GI50 with HCT-116 is 4.71 µM (inactive); in the test with ACHN it was 7.13 µM (inactive); in the test with UACC-257 it was 16.3 µM (inactive); in the test with CCRF-CEM, 2.42 µM (inactive); in the test on KM12, 14.8 µM (inactive); in the test with OVCAR-3 it was 4.82 µM (inactive). Also, the GI50 in the test on 786-0 was 4.88 µM (inactive).

For the compound `Cc1ccc(/C=C/C(=O)C(C)(C)CN2CCCCC2)cc1`, the GI50 in the test on Malme-3M was 13.3 µM (inactive); in the test on UO-31, 10.3 µM (inactive); in the test on SW-620 it was 2.72 µM (inactive); in the test on SK-MEL-5, 2.86 µM (inactive); in the test on SK-MEL-28, 16.4 µM (inactive); in the test with SNB-19, 2.57 µM (inactive). Further, the GI50 is 10.5 µM (inactive) with HCT-116; 11.2 µM (inactive) in the test with ACHN; 7.76 µM (inactive) with UACC-257; 3.11 µM (inactive) with CCRF-CEM; 3.28 µM (inactive) with KM12; 5.37 µM (inactive) in the test on SNB-75. Also, the GI50 was 2.81 µM (inactive) in the test on OVCAR-3 and 6 µM (inactive) in the test on 786-0.

For the compound `CCN(CC)/[N+]([O-])=N/OCC(C)O` (configuration not stated), the GI50 with UO-31, with SW-620, in the test with SK-MEL-5, in the test with HL-60, in the test with SK-MEL-28 and in the test on SNB-19 was > 100 µM (inactive) each time. The GI50 with HCT-116, in the test on ACHN, in the test with UACC-257, in the test with CCRF-CEM, in the test with KM12 and with SNB-75 was > 100 µM (inactive) in each case. Besides, the GI50 with OVCAR-3 and with 786-0 was > 100 µM (inactive) throughout.

For the compound `CCOCN1COCN(C)C1=O`, the GI50 in the test on Malme-3M, in the test on UO-31, in the test on SW-620, in the test with SK-MEL-5, in the test with SK-MEL-28 and with SNB-19 was > 100 µM (inactive) each time. In addition, the GI50 in the test on HCT-116, in the test on ACHN, with UACC-257, in the test on CCRF-CEM, in the test on KM12 and with SNB-75 was > 100 µM (inactive) in each case. Besides, the GI50 in the test on OVCAR-3 and with 786-0 was > 100 µM (inactive) each time.

Consider `C[C@@]12CCCc3coc(c31)C(=O)c1cc3c(cc12)C(=O)C=CC3=O` [XESTOQUINONE], for which the GI50 is 16.2 µM (inactive) in the test with UO-31; 5.08 µM (inactive) with SW-620; 16.7 µM (inactive) in the test with SK-MEL-5; 2.38 µM (inactive) in the test on HL-60; 43.8 µM (inactive) in the test with SNB-19; 12.8 µM (inactive) with ACHN. For the same compound, the GI50 with UACC-257 is 16.2 µM (inactive); in the test with CCRF-CEM, 2.23 µM (inactive); in the test with KM12 it was 21.7 µM (inactive); in the test on SNB-75, 19.3 µM (inactive); with OVCAR-3, 20.2 µM (inactive); with 786-0 it was 17 µM (inactive).

With `O=C(O/C(=C(/N=N/c1ccccc1)c1ccccc1)c1ccccc1)c1ccccc1`, the GI50 with Malme-3M, with UO-31, with SW-620, in the test on SK-MEL-5, with SK-MEL-28 and in the test with SNB-19 was > 100 µM (inactive) throughout. In addition, the GI50 with HCT-116 was > 100 µM (inactive); in the test on ACHN, > 100 µM (inactive); with UACC-257 it was > 100 µM (inactive); with KM12, > 100 µM (inactive); with SNB-75, 87.3 µM (inactive); in the test on 786-0 it was > 100 µM (inactive).

Turning to `COc1cc(OC)c(OC)cc1/C=N/NC(=O)N/N=C/c1cc(OC)c(OC)cc1OC`, the GI50 in the test on Malme-3M, with UO-31, with SW-620, in the test on SK-MEL-5, with SK-MEL-28 and with SNB-19 was > 100 µM (inactive) each time. Also, the GI50 was > 100 µM (inactive) with HCT-116; > 100 µM (inactive) in the test on ACHN; > 100 µM (inactive) in the test on UACC-257; > 100 µM (inactive) in the test on CCRF-CEM; > 100 µM (inactive) in the test on KM12; 15.8 µM (inactive) in the test on SNB-75. In addition, the GI50 with OVCAR-3 and with 786-0 was > 100 µM (inactive) throughout.

For the compound `CCOC(=O)c1nc2ccc(Cl)cc2c2c1Cc1ccccc1-2`, the GI50 with UO-31, with SW-620, in the test on SK-MEL-5, with SK-MEL-28, with SNB-19 and in the test on HCT-116 was > 100 µM (inactive) throughout. Further, the GI50 in the test with ACHN was > 100 µM (inactive); with UACC-257, 75.3 µM (inactive); with KM12, > 100 µM (inactive); in the test with SNB-75 it was 70 µM (inactive); with OVCAR-3 it was > 100 µM (inactive); in the test with 786-0, > 100 µM (inactive).

For `O=C(N/C(=C\c1cc(Cl)ccc1Cl)c1nc2ccccc2[nH]1)c1ccccc1`, the GI50 was 19.7 µM (inactive) in the test with Malme-3M; 20.2 µM (inactive) with UO-31; 22 µM (inactive) in the test on SW-620; 21.7 µM (inactive) with SK-MEL-5; 21.2 µM (inactive) in the test on HL-60; 45.3 µM (inactive) in the test with SK-MEL-28. Further, the GI50 in the test on SNB-19 is 46.9 µM (inactive); with ACHN, 33.3 µM (inactive); in the test on CCRF-CEM, 25.9 µM (inactive); with KM12, 27.4 µM (inactive); in the test with OVCAR-3, 36.3 µM (inactive); in the test on 786-0 it was 18 µM (inactive).

As to `CCCN(CCCC(NC(C)=O)C(=O)NCc1ccccc1)C(=O)N(C)N=O` (configuration not stated), the GI50 in the test with Malme-3M, in the test with SW-620, in the test on SK-MEL-5, in the test with SK-MEL-28, in the test with HCT-116 and with ACHN was > 100 µM (inactive) each time. In addition, the GI50 with UACC-257 is > 100 µM (inactive); with CCRF-CEM it was > 100 µM (inactive); in the test with KM12, > 100 µM (inactive); in the test with SNB-75, 41.3 µM (inactive); with OVCAR-3, > 100 µM (inactive); in the test on 786-0, > 100 µM (inactive).

The values are drawn from ChEMBL document CHEMBL1201862, “PubChem BioAssay data set” (2004).
